For assay [1], the system named is β-gal antigen-specific IgG isotypes. Kind of assay: β-gal-specific IgG isotypes in sera of immunized mice (isotype ELISA). It is filed as in vivo. The following applies: after intranasal and after parenteral administration. How it is done:
FIG. 8: FIG. 8 provides the analysis of beta-Gal specific IgG isotypes in sera of immunized mice. Anti-beta-Gal specific IgG isotypes of the groups immunized with PBS, (control) beta-Gal+either BPPcysGlyc4armPEG or BPPcysPEG (FIG. 8A) or BPPcysAda or Ada alone (FIG. 8B), or beta-Gal alone of mice immunized by the i.n. or s.c. route were determined by ELISA. Results are expressed as end point titers. IgG titers represent the mean of five animals per experimental group. Differences were statistically significant at p<0.05 (*) with respect to mice receiving antigen alone. One representative out of four independent experiments is shown. SEM is indicated by vertical lines.
Isotyp ELISA: 96-well Nunc-Immuno MaxiSorp assay plates (Nunc, Roskilde, Denmark) were coated with 100 μl of β-gal (Boehringer, Mannheim, Germany) at 5 μg/ml in 0.05 M carbonate buffer (pH 8.2) per well. Serial two-fold dilutions of sera or lavages in PBS with 1% BSA and 0.05% Tween 20 were added (100 μl/well), and plates incubated for 2 h at 37° C. After washing, biotin-conjugated rat anti-mouse IgG1 or IgG2a (Pharmingen, Hamburg, Germany) were added to determine IgG subclasses. Plates were incubated for an additional 1 h at 37° C. After four washes, 100 μl of peroxidase-conjugated streptavidin (Pharmingen) was added to cells and plates incubated at 37° C. for 30 min. After four washes, reactions were developed with ABTS in 0.1 M citrate-phosphate buffer (pH 4.35) containing 0.01% H2O2. To determine the concentration of IgG subclasses in serum, standard curves were obtained by coating the wells with an isotype-specific goat anti-mouse IgG, and then by incubating with purified mouse IgG1 or IgG2a antibodies (Dianova, Hamburg, Germany).
In general terms: ELISA stands for enzyme-linked immunosorbent assay.

Assay [2] deals with primary bone marrow-derived dendritic cells. Kind of assay: In vitro stimulation of primary bone marrow-derived murine dendritic cells, surface markers by flow cytometry. It is filed as cell-based, BALB/c mice. To be noted: concentration enhanced to 100 ng/ml (not shown). As for the experimental part: FIG. 1: FIGS. 1A-1C show the results for In vitro studies using primary dendritic cells. Primary bone marrow-derived dendritic cell cultures were obtained from BALB/c mice by in vitro maturation of precursors using recombinant GM-CSF (5×10^4 U/ml). Mature dendritic cells were stimulated with 10 ng/ml of E. coli lypopolysaccharide (LPS) or 50 and 100 ng/ml of BPPcysGlyc4armPEG and BPPcysAda, respectively. Then, cells were double-labeled with antibodies specific for CD11c (dendritic cell marker) in combination with anti-CD40, anti-CD54, anti-CD80, anti-CD86, anti-MHC class 1, or anti-MHC class 11 antibodies. The expression of CD40, CD80, CD54, CD86, anti-MHC class 1, and MHC class 11 in CD11c-gated cells were analyzed by flow cytometry.
Experimental protocol: primary bone marrow-derived dendritic cell cultures were obtained from BALB/c mice following in vitro maturation of precursors in the presence of recombinant GM-CSF (5×10^4 U/ml), according to established protocols. Mature dendritic cells were stimulated with 10 ng/ml of E. coli lypopolysaccharide (LPS) or 5 ng/ml of BPPcysGlyc4armPEG, after 12, 24 and/or 48 h stimulation cells were analyzed by flow cytometry to assess the expression of surface markers which are relevant for their antigen presentation capacity.
In order to identify compounds which may have potential as adjuvants for in vivo applications in the vaccinology field, a first in vitro screening based on the used of primary cultures of bone marrow-derived dendritic cells was established. Dendritic cells were selected since they represent the most efficient antigen presenting cells and they play a key role by primary immune responses. In fact, they are the only cell type able to activate resting T cells initiating primary immune responses in vivo. Thus, dendritic cell cultures were treated with the tested moieties or LPS, which was used as a positive control. At different time intervals, samples were taken, stained with fluorescent-labeled antibodies specific for cellular markers critical for the antigen presenting capacities of dendritic cells, and analyzed by flow cytometry.
To test the stimulatory capacity of BPPCysAda on maturation and activation of bone marrow-derived DC, immature DC's were stimulated in vitro with BPPCysAda. Surface markers on CD11c+-gated DC were investigated by FACS analysis after 16 or 40 h pre-treatment.

The subject of assay [3] is peritoneal macrophages from C3H/HeJ mice. Kind of assay: Nitrogen monoxide release assay (macrophage activation). The assay is classed as cell-based. The following applies: 25 mM octylglucoside in first dilution step. As for the experimental part:
NO release of restimulated macrophages using different concentrations (serial dilutions) of the macrophage activator BPPcysGlyc4armPEG as adjuvant. As positive control, the NO release of macrophages in response to serial dilutions of Malp-2 and in response to 4armPEG molecules (negative control) are shown.
In brief, peritoneal macrophages from C3H/HeJ mice were used as the macrophage source. They were cultured in 96-well microtiter plates and stimulated simultaneously with rIFN-γ and a serial dilution of macrophage activator. Insofar as necessary (i.e. R-Malp-2/standard), the macrophage activators were dissolved in 25 mM octylglucoside in the first dilution step and then diluted further with medium. After an incubating time of 45-48 hours, the nitrate was reduced with nitrate reductase and the starting substance nitrogen monoxide was determined, as the sum of nitrate and nitrite, using Griess' reagent. 1 unit (U)/ml is defined as the dilution at which half-maximal stimulation takes place.

Regarding `Nc1ncnc2c1ncn2[C@@H]1O[C@@H]2COP(=O)(O)O[C@H]3[C@@H](O)[C@H](n4cnc5c(N)ncnc54)O[C@@H]3COP(=O)(O)O[C@H]2[C@H]1O` [c-diAMP], in assay [1], the antigen-specific antibody response entry is “strong antigen-specific antibody response”.
Turning to MALP-2 [reference compound], the “differences in the expression of surface markers when concentration enhanced” value in assay [2] was “No differences”. In addition, the “effect of adding a solubilizer (octylglucoside) on macrophage activation” value in assay [3] was “required”.

The values are drawn from patent publication US8119689B2, “Adjuvants on the basis of bisacyloxypropylcystene conjugates and derivatives and their uses in pharmaceutical compositions” (Helmholtz-Zentrum Fuer Infektionsforschung GmbH, priority 2005, dated 2012).
